The values that follow come from patent US7435724B2, “Degradation-resistant mononucleoside phosphate compounds” (Inspire Pharmaceutical, Inc., priority 2002, dated 2008).

In this assay the test system is whole blood platelet aggregation. Put plainly: Platelet aggregation assay, whole blood (ADP-induced, impedance mode). Format: cell-based, human (healthy volunteers). The settings on record: Homo sapiens, read-out: PLATELET DATA IC50 Whole Blood, inhibition of aggregation by maximally effective ADP, whole blood diluted 1:1 with saline. On the procedure: Blood was collected from healthy volunteers into syringes containing ⅙final blood volume of anti-coagulant ACD (65 mM citric acid, 85 mM sodium citrate, 110 mM dextrose) for washed platelet (WP) preparation or into a syringe containing a final concentration of 10 units/mL heparin or 300 μM PPACK for whole blood (WB) assays. The blood collected for whole blood assays was maintained at room temperature and immediately tested as described below. The blood collected for WP) was centrifuged at 180 g for 15 minutes and the supernatant (platelet rich plasma) was removed. […] Platelet aggregation was measured using the optical mode of a ChronoLog aggregometer (Havertown, Pa.). […] A maximally effective concentration of ADP (typically a concentration that produces between 90 and 100 percent of the maximal response) was added to the sample and aggregation was monitored for 8 minutes. […]
The potency of agonists and inhibitors of platelet aggregation was calculated from both, the rate of aggregation and the maximal extent of aggregation obtained for each determination by fitting the data to a four-parameter logistic equation using the GraphPad software package (GraphPad Corp. San Diego, Calif.).

As a reminder, the IC50 is the concentration needed to halve the response being measured.

Regarding `CCNC(=O)Nc1ncnc2c1ncn2[C@@H]1O[C@H](COP(=O)(O)OC)C2O[C@H](/C=C/c3ccccc3)O[C@@H]21` (stereo partly drawn) [Compound 217, 2′,3′-(trans)-O-methylenestyryl-5′-(methylphosphate)-N^6-ethylaminocarbonyl-adenosine], the half-maximal inhibitory concentration (IC50) turned out to be 2500 nM.
